Measurements taken from PMC8137933, “Using molecular dynamics simulations to prioritize and understand AI-generated cell penetrating peptides” (Scientific Reports, 2021).

Test system: HeLa cells
Format: cell-based
Experimental: We first evaluated cell toxicity of Pep-MD. Specifically, we quantified HeLa cell viability using CellTiter-Glo® Luminescent Cell Viability Assay kit in the presence of a series of concentration of Pep-MD, 0.1, 0.5 and 2 µM, in serum-free cell culture media. The kit can visualize the number of viable cells as chemiluminescence intensity based on quantitation of the ATP present, an indicator of metabolically active cells. As a positive control, we also evaluated TAT (GRKKRRQRRR in amino acid sequence).
The HeLa cell line was purchased from RIKEN cell bank (Tsukuba, Japan). HeLa cells were cultured in Dulbecco’s Eagle’s medium (DMEM, FUJIFILM Wako Pure Chemical, Japan) supplemented with inactivated 10% fetal bovine serum (FBS, Biosera, France) and 1% penicillin–streptomycin solution (FUJIFILM Wako Pure Chemical).
HeLa cells were seeded at a density of 8000 cells per well in 96 well plate (AGC Techno Glass, Shizuoka, Japan). […] Cell viability of each well was quantified with CellTiter-Glo® Luminescent Cell Viability Assay kit (Promega, Madison, WI, USA) and EnSpire™ microplate reader (PerkinElmer, Waltham, MA, USA) according to manufacturer’s instructions. The cell viability was calculated as the chemiluminescence intensity ratio of samples to that of […] without peptide.

Sequence	Cell toxicity (HeLa cell viability) at 2.0 µM
GRKKRRQRRR [TAT]	significant cell toxicity
YRGWHCRGITKNGIIFDIKW [Pep-MD]	little toxicity
